Experimental data as given in patent US20150216870A1, “Combination of PI3K Inhibitor and C-Met Inhibitor” (Novartis AG, priority 2012, published 2015).
“Also recorded” adds a separate entry of the source.

Columns and labels:
[1] = Toxicity (deaths) in U-87 MG xenograft study; assay type: in vivo
Source text: Animals are weighed on Days 1-5, on each treatment day (except weekends), and twice weekly thereafter, until the end of the study. Group mean BW nadir determinations exclude measurements taken after more than 50% of the assessable mice in the group had exited the study, and also excluded any animal that was classified as an NTR death during the study. Acceptable toxicity for the maximum tolerated dose (MTD) is defined as a group mean BW loss of less than 15% during the test, and not more than one TR death among ten animals. Any animal with BW losses exceeding 15% for three consecutive measurements, or with a BW loss exceeding 20% for one measurement, are euthanized, and classified as a TR death unless it was the first death in the group. A death is classified as Non-Treatment Related (NTR) if there was no evidence that the death is related to treatment side effects and the death occurs more than 14 days after dosing ended. NTR deaths are categorized as NTRa (due to accident or error), NTRu (due to unknown causes), or NTRm (necropsy-confirmed tumor dissemination by invasion and/or metastasis). To conserve animals while providing maximum information, the first death in a group was classified as NTRu; such an NTR death was to be reclassified as TR if two subsequent TR deaths are recorded in the same group.

[2] = tested on: NCI-H1993 human non-small cell lung carcinoma xenograft; assay: NCI-H1993 xenograft tumor growth inhibition and tumor growth delay; assay type: in vivo, athymic nude mice; conditions: c-Met inhibitor 17.7 mg/kg p.o. b.i.d. to end
Source text: In this experiment, the NCI-H1993 human non-small cell lung carcinoma xenograft model is used to assess the anti-tumor efficacy of the PI3K inhibitor COMPOUND D and c-Met inhibitor 2-fluoro-N-methyl-4-[7-quinolin-6-yl-methyl)-imidazo[1,2-b][1,2,4]triazin-2yl]benzamide as single agents or in combination. NCI-H1993 tumor cells obtained from the American Type Culture Collection (ATCC) are derived from a lymph node metastasis of a patient having a stage 3A lung adenocarcinoma and a history of smoking.
Female athymic nude mice (Crl:NU (Ncr)-Foxn1^nu, Charles River) are 8 weeks old, and have a body weight (BW) range of 16.1-26.2 g, on D1 of the study. The animals are fed ad libitum water (reverse osmosis, 1 ppm CI) and NIH 31 Modified and Irradiated Lab Diet® consisting of 18.0% crude protein, 5.0% crude fat, and 5.0% crude fiber. The mice are housed on irradiated Enrich-O'cobs™ Laboratory Animal Bedding in static microisolators on a 12-hour light cycle at 20-22° C. (68-72° F.) and 40-60% humidity.
The NCI-H1993 tumor line is obtained from the American Type Culture Collection and maintained at DRS_NC in RPMI-1640 medium containing 100 unites/penicillin G sodium, 100 µg/mL streptomycin sulfate, 25 µg/mL gentamicin, 10% fetal bovine serum, and 2 mM glutamine. The tumor cells are cultured in tissue culture flasks in a humidified incubator at 37° C. in an atmosphere of 5% CO2 and 95% air.
The tumor cells used for implementation are harvested during log phase growth and resuspended in cold PBS containing 50% Matrigel™ (BD Biosciences). Each mouse is injected subcutaneously in the right flank with 1×10^7 cells (0.2 mL cell suspension). Tumors are calipered in two dimensions to monitor growth as their mean volume approached the desired 200-250 mm^3 range. Tumor size, in mm^3, was calculated from: Tumor Volume=(width^2×length)/2, where width and length (in mm) are measurements of the tumor. Tumor weight can be estimated with the assumption that 1 mg is equivalent to 1 mm^3 of tumor volume. Fourteen days after tumor cell implantation, on D1 of the study, mice with individual tumor volumes of 172-256 mm^3 are sorted into groups of ten mice, with group mean tumor volumes of 206-215 mm^3.
The c-Met inhibitor 2-fluoro-N-methyl-4-[7-quinolin-6-yl-methyl)-imidazo[1,2-b][1,2,4]triazin-2yl]benzamide (HCl salt, 84.98% free base) is stored at 4° C. and is added to a volume of deionized water equal to 1/2 of the final volume and sonicated until dissolved to obtain a uniform 2× suspension. An equal volume of 0.5% methylcellulose: 0.1% Tween® 80 is added to provide a 1.77 mg/mL solution with final vehicle concentrations of 0.25% methylcellulose and 0.05% Tween® 80 in deionized water (Vehicle 1). Fresh solutions are prepared once daily for the […]. dosing and stored at room temperature until the a.m. dosing.
COMPOUND D is suspended at 3.0 mg/mL in 0.5% methylcellulose in deionized water. The vehicle is added in portions equal to 1/3 of the final volume. The suspension is vortexed after each addition, and then finally probe sonicated on ice to prepare a homogeneous white suspension. A fresh suspension is prepared weekly, stored at 4° C., and re-suspended prior to dosing.
The c-MET inhibitor and the vehicle is each administered via oral gavage (p.o.) twice daily for the duration of the study (b.i.d. to end). COMPOUND D is administered via oral gavage (p.o.) once daily for the duration of the study (qd to end). In combination therapies, COMPOUND D is dosed within 30 minutes after the c-Met inhibitor. In all groups, the dosing volume of 10 mL/kg (0.2 mL/20 g mouse) is scaled to the weight of each animal as determined on the day of dosing, except on weekends when the previous BW is carried forward.
The groups of nude mice (n=10/group) are treated as follows. Group 1 receive Vehicle 1 and Vehicle 2 and serve as controls for the study. […] Group 3 receives 30 mg/kg COMPOUND D monotherapy once daily for the duration of the study (qd to end).

SMILES: CNC(=O)c1ccc(-c2cnc3ncc(Cc4ccc5ncccc5c4)n3n2)cc1F [c-Met inhibitor]
- Deaths ([1]; c-Met inhibitor 17.7 mg/kg p.o. qd x21): (0)
- Deaths ([1]; c-Met inhibitor 35.3 mg/kg p.o. qd x21): (0)
- % TGD [2]: 97%
- D71 survivors [2]: four
- T-C [2]: 24.2 days
- T/C or T/T0 ([2]; D20): 15%
- Median TTE ([2]; endpoint 600 mm3): 49.2 days
- overall survival (in words) ([2]; logrank vs control): significantly extends survival; also recorded: significant survival extension
- D20 tumor growth inhibition (in words) ([2]; vs control Group 1): does not achieve significant inhibition relative to control; also recorded: non-significant D20 tumor growth inhibition
